Source: patent publication US12486528B2, “Compositions and methods for measuring and inhibiting calpain-5 activity” (The Board of Trustees of the Leland Stanford Junior …, priority 2019, dated 2025)
Residue numbers refer to the chain shown, from its start. Like-named read-outs stand apart in the source and are kept apart here. No end group written: not given here.

Legend:
CAPN5 wild-type = CAPN5 wild-type (Homo sapiens, UniProt O15484); test: FRET-based CAPN5 inhibition assay, wild-type protease; type: biochemical; conditions: for IC50: CAPN5 WT; for inhibition of wildtype CAPN5: CAPN5 wild-type
Experimental: (§1) We have optimized the CAPN5 assay and developed a high throughput CAPN5 inhibition assay which utilizes 384-well plates and uses less than 50 nM protease for each experimental condition. Calpain proteolytic activity was measured by hydrolysis of DABCYL-TPLKSPPPSPR (SEQ ID NO:3)-EDANS (Calpain Substrate III; Calbiochem). Briefly, 50 nM of purified CAPN5-G267S protease core domain was added to a reaction buffer containing 50 mM imidazole (pH 7.0), 200 mM NaCl, 20 mM CaCl2, 1 mM EDTA, 8 mM Li-acetate, 0.19 mM Facade®-EPC, 1 mM TCEP, 0.8% (v/v) glycerol, 4% (v/v) 1,3-butanediol. 8 μL of protease was added to each well of the 384-well plates. Varying concentrations of […] (final concentration of 0.1 μM to 100 μM; 4 μL in each well) were added and the reaction was incubated at 37° C. for 30 minutes. After incubation, 8 μL of Calpain Substrate III was added to each well (final concentration of 40 μM; total reaction volume was 20 μL) and EDANS signal was measured on a fluorimetric plate reader (Tecan Spark, Mannedorf Switzerland). All experiments were performed in triplicate. Reaction rates were fit to the Hill equation to determine the IC50 values in GraphPad Prism 8. This assay condition is compatible with CAPN1 and CAPN5 wild-type. We have chosen CAPN5-G267S for initial inhibitor screening, since it has higher activity than CAPN5 wild-type and the mutation is located at the G2-loop which is away from the active site that is likely to have identical specificity to CAPN5 wild-type specificity.
(§2) We have identified the PDGFB protein as a substrate. We discovered a likely proteolytic site for CAPN5 on PDGFB, and sought to use this information to inhibit proteolysis assuming the alteration of a robust endogenous substrate of CAPN5 would create an opportunity for more specific inhibition of CAPN5. We generated two artificial peptides by methylating only P1-Lysine (1-Methylated; FIG. 7A) or both P1-Lysine and P1′-Lysine (2-Methylated; FIG. 7B) expecting the methylation would make the PDGFB peptide motif resistant to CAPN5 proteolysis. We tested their inhibitory potential against CAPN5-G267S using our high throughput FRET-based CAPN5 inhibition assay. […] We further tested them with the CAPN5 wild-type and CAPN5-R243L mutant proteases. Both methylated PDGFB peptides inhibited CAPN5-R243L activity at the nanomolar IC50 (FIG. 7E).

CAPN5-R243L = CAPN5-R243L (Homo sapiens, UniProt O15484, R243L); test: FRET-based CAPN5 inhibition assay, R243L mutant protease; type: biochemical
Experimental: as §1, §2

CAPN5-PC p.G267S = biological target: T1, CAPN5-PC p.G267S (Homo sapiens, UniProt O15484, G267S); test: In vitro CAPN5 activity assay with consensus FRET peptides; type: biochemical; conditions: 1.6 μM CAPN5-PC p.G267S, 10 mM Ca^2+
T1 construct: active recombinant CAPN5 protease core (CAPN5-PC)
T1 sequence (O15484 26-343 G267S limits assumed): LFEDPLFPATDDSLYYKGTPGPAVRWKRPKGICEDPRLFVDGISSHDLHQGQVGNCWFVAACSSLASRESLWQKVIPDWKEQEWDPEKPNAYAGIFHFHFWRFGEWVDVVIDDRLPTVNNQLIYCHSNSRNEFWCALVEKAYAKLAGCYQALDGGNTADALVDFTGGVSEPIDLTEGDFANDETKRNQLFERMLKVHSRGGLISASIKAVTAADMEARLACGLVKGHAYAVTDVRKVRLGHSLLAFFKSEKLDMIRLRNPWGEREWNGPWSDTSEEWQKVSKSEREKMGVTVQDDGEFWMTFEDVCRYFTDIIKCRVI
Experimental: Consensus FRET peptides were synthesized based on the highest scoring amino acids at each position of the PSSM (Peptides P4′A, P4′P, P2R, and P3GP1′ V) and were tested in our in vitro CAPN5 activity assay (FIG. 9B). These substrates were hydrolyzed by 1.6 μM CAPN5-PC p.G267S in the presence of 10 mM Ca^2+. […] The catalytic efficiency (kcat/Km) of this peptide was higher than the observed kcat/Km for our previously determined PR1476 peptide (11 vs. 7 M^−1s^−1; FIG. 9D).

[1] = biological target: T2, Calpain-5 protease core domain (CAPN5-PC) (Homo sapiens, UniProt O15484); test: CAPN5 functional assay (FRET peptide substrate kinetics)
T2 sequence (O15484 26-343 limits assumed): T1 sequence (O15484 26-343 G267S limits assumed) with S242G
Experimental: The assay was performed using a Greiner 96-well Black Small Volume plate according to the following protocol for measuring enzymatic activity of the calpain-5 protease: • Dilute CAPN5 in activity buffer to make a master mix at 3 concentrations. • Add 50 μL of substrate diluted with activity buffer (7 working concentrations at 2×). • Add 50 μL of CAPN5 to each well with multi-channel pipette. • Measure fluorescence activity (336/490 nm) on Tecan Spark at 37° C. for 2 hours with recordings taken every 2 minutes (with lid). • Convert RFU values to nM product using standard curve of EDANS concentrations (2 nM to 5 μM). • Calculate reaction velocity (slope) at each substrate concentration using linear regression. • Calculate Michaelis-Menten kinetic parameters in GraphPad Prism 8.

Human CAPN5-PC = Human CAPN5-PC (Homo sapiens, UniProt O15484); test: Human CAPN5-PC | Ki (µM)
Experimental: Table printed on a drawing sheet, FIG. 1C
Head of the field: Human CAPN5-PC | Ki (µM)
The patent's description of the figure: FIGS. 1A-1C show kinetic analysis of human CAPN5 and rat CAPN1 with the peptide substrates, RQNRGGGCINH (SEQ ID NO:1, FIG. 1A) and PLFAER (SEQ ID NO:2, FIG. 1B).
FIGS. 1A-1B show kinetic analysis of human CAPN5 and rat CAPN1 with the peptide substrates, RQNRGGGCINH (SEQ ID NO:1, FIG. 1A) and PLFAER (SEQ ID NO:2, FIG. 1B) using this protocol. […] A 10 mM PR1476 master stock was prepared in 100% DMSO. 3.69 mM PR1478 master stock was prepared in 50% DMSO/50% activity buffer.
First copying reader's note: Enzyme kinetic parameters of peptide substrates with calpain protease cores; the ± error stands inside the cells.
Where the first naming reader finds the target: head: Human CAPN5-PC

Chain of CAPN5 wild-type (O15484 whole entry, the tested form may be a part): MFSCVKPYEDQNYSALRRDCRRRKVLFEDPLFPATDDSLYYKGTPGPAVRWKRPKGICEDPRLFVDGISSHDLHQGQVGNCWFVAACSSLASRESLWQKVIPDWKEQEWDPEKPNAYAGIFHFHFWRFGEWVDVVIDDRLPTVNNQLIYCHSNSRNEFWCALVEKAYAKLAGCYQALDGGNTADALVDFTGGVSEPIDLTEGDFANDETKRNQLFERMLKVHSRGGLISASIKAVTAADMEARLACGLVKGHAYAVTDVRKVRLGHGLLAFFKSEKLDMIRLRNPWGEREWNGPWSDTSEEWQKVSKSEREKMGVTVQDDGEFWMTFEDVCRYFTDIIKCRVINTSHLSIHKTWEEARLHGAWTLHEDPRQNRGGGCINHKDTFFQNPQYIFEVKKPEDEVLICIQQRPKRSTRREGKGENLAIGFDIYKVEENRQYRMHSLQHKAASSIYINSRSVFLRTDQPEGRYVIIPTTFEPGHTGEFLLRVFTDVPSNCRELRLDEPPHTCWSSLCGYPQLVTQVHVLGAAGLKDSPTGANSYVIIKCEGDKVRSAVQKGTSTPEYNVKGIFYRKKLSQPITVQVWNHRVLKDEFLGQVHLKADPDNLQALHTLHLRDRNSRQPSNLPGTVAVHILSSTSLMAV
Chain of CAPN5-R243L (O15484 whole entry R243L): as the sequence (O15484 whole entry, the tested form may be a part) above, with R243L counted along it
Chain of Human CAPN5-PC (O15484 26-343): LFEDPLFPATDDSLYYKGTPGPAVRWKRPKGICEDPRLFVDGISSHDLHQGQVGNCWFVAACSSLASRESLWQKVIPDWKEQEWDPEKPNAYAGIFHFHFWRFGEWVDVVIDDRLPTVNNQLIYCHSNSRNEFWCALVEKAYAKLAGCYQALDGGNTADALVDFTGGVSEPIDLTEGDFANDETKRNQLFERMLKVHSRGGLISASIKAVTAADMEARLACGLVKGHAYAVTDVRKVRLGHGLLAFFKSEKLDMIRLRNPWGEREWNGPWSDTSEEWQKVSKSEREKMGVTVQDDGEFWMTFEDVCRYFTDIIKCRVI

Compound: CCCC[C@@H](C=O)NC(=O)[C@H](CC(C)C)NC(=O)OCc1ccccc1 [Calpeptin]
- IC50 (CAPN5 wild-type): nanomolar
- inhibition of wildtype CAPN5 (CAPN5 wild-type): inhibit the wildtype
- inhibition of CAPN5-R243L (mutant CAPN5) (CAPN5-R243L): did not show any inhibition
- inhibition of CAPN5-R243L (mutant CAPN5) (CAPN5-R243L; listed as calpeptin): not the mutant CAPN5

Compound: CC(=O)N[C@@H](CC(C)C)C(=O)N[C@@H](CC(C)C)C(=O)N[C@H](C=O)CCCNC(=N)N [Leupeptin]
- IC50 (CAPN5 wild-type): nanomolar
- inhibition of wildtype CAPN5 (CAPN5 wild-type): inhibit the wildtype
- inhibition of CAPN5-R243L (mutant CAPN5) (CAPN5-R243L): did not show any inhibition
- inhibition of CAPN5-R243L (mutant CAPN5) (CAPN5-R243L; listed as leupeptin): not the mutant CAPN5

Compound: EGKAVLEA (also: FRET labels, places not given here) [P3GP1′V, consensus FRET peptide substrate of calpain-5]
- hydrolysis by CAPN5-PC p.G267S (CAPN5-PC p.G267S): hydrolyzed

Compound: EVKALEEA (also: FRET labels, places not given here) [P4′A, consensus FRET peptide substrate of calpain-5]
- hydrolysis by CAPN5-PC p.G267S (CAPN5-PC p.G267S): hydrolyzed

Compound: EVKALEEP (also: FRET labels, places not given here) [P4′P, consensus FRET peptide substrate of calpain-5]
- hydrolysis by CAPN5-PC p.G267S (CAPN5-PC p.G267S): hydrolyzed

Compound: EVRALEEA (also: FRET labels, places not given here) [P2R, consensus FRET peptide substrate of calpain-5]
- hydrolysis by CAPN5-PC p.G267S (CAPN5-PC p.G267S): hydrolyzed
- substrate turnover (kcat), preference (CAPN5-PC p.G267S): preferred by CAPN5-PC

Compound: RQNRGGGCINH (N-terminal Dabcyl, EDANS on glutamate, C-terminal cap; calpain-5 peptide substrate) [PR1476]
- activity as substrate with CAPN5 ([1]; CAPN5 0, 0.16, 0.49, 1.6 μm, peptide 0 μM to 160 μM): displays activity in a CAPN5 dose-dependent manner
- substrate quality / sensitivity to CAPN5-PC activity ([1]; comparison between substrates): more sensitive than other generic calpain substrates

Compound: RQNRGGGCINH (not fully specified (N-terminus)) [PR1476]
- Ki (Human CAPN5-PC): 43 ± 14 µM
